# In patent publication US20170165286A1, “COMPOSITIONS AND METHODS FOR TREATING DIABETES AND LIVER DISEASES” (Cempra Pharmaceuticals, Inc., priority 2014, published 2017):
# “Also recorded” adds a separate entry of the source.
# Legend:
# [1] = Phase 1 study in subjects with hepatic impairment: safety; format: in vivo, humans; conditions: for Number of subjects reporting treatment-emergent AEs: 800 mg Day 1, 400 mg Days 2-5
# Protocol: Safety of solithromycin in humans with hepatic insufficiency.
# Safety and Pharmacokinetics of solithromycin in Subjects with Hepatic Impairment. The safety, pharmacokinetics (PK), and protein binding of solithromycin was evaluated in subjects with mild, moderate, and severe hepatic impairment compared to healthy subjects with normal hepatic function (matched for age, weight, and gender). The evaluation was performed in a Phase 1, open-label, multiple-dose study in subjects with mild (Child-Pugh Class A), moderate (Child-Pugh Class B), and severe (Child-Pugh Class C) hepatic impairment and healthy matched control subjects with normal hepatic function. All subjects received a once-daily dose of 800 mg on Day 1 followed by 400 mg on Days 2 through 5.
# 33 subjects were enrolled: 8 with mild impairment (mean Child-Pugh score 5.625), 8 with moderate impairment (mean Child-Pugh score 7.375), 8 with severe impairment (mean Child-Pugh score 10.625), and 9 healthy controls with normal hepatic function. One subject, a healthy control, discontinued study drug after 2 doses due to a rash; all other subjects (n=32) completed the study. Overall, the number of subjects reporting treatment-emergent AEs in the hepatic impaired cohorts (mild n=1, moderate n=4, severe n=4) was no greater than in the control group (n=4).
# STAM mice = assay: STAM model: Sirius red staining, fibrosis area; format: in vivo; conditions: for Sirius red-positive area (% of area showing fibrosis): STAM mice liver
# Protocol: NASH-HCC (STAM™) Model. C57BL/6 (15-day-pregnant female) mice are obtained from Charles River Laboratories Japan (Kanagawa, Japan). Male pups are selected for the study. NASH is induced in male mice by a single subcutaneous injection of 200 μg streptozotocin (STZ, Sigma-Aldrich, USA) solution 2 days after birth, followed by feeding a HFD (57 kcal % fat, cat#: HFD32, CLEA Japan, Japan) beginning at 4 weeks of age. At 5 weeks of age, mice are divided into a control group and one or more treated group (generally 8 mice per group). Animals are sacrificed at 9 weeks of age, and biochemical, histological, and gene expression analyses are performed.
# During weeks 5-9 (starting at day 35±2), test compound is administered (generally orally) at various doses diluted to 10 mL/kg and according to various dosing protocols to treatment groups (8 mice each) while a second group (8 mice) is administered vehicle only. Animals are sacrificed at 9 weeks.
# To visualize collagen deposition (a measure of fibrosis), Bouin's fixed left lateral liver sections are stained using picro-Sirius red solution (Waldeck, Germany).
# For quantitative analysis of fibrosis area, bright field images of Sirius red-stained sections are captured around the central vein using a digital camera (DFC280; Leica, Germany) at 200-fold magnification, and the positive areas in 5 fields/section are measured using ImageJ software (National Institute of Health, USA). For quantitative analysis of inflammation area, bright field images of F4/80-immunostained sections are captured around the central vein using a digital camera (DFC280; Leica, Germany) at 200-fold magnification, and the positive areas in 5 fields/section are measured using ImageJ software (National Institute of Health, USA).
# Illustrative dose response test groups. Group 1-Normal. Eight normal mice are fed with a normal diet ad libitum without any treatment until 9 weeks of age. Group 2-Vehicle. Eight NASH mice are orally administered vehicle (0.5% w/v methylcellulose+0.2% Tween®80) in a volume of 10 mL/kg twice daily from 5 to 9 week of age. Group 3-solithromycin 5 mg/kg. Eight NASH mice are orally administered vehicle supplemented with solithromycin at a dose of 5 mg/kg in the morning and the vehicle in the evening (5 mg/kg/day) from 5 to 9 weeks of age. Group 4-solithromycin 10 mg/kg. Eight NASH mice are orally administered vehicle supplemented with solithromycin at a dose of 10 mg/kg twice daily (20 mg/kg/day) from 5 to 9 weeks of age. Group 5-solithromycin 25 mg/kg. Eight NASH mice are orally administered vehicle supplemented with solithromycin at a dose of 25 mg/kg twice daily (50 mg/kg/day) from 5 to 9 weeks of age. Group 6-solithromycin 50 mg/kg. Eight NASH mice are orally administered vehicle supplemented with solithromycin at a dose of 50 mg/kg once daily (50 mg/kg/day) from 5 to 9 weeks of age.
compound,measurement,setting,value
CC[C@H]1OC(=O)[C@@](C)(F)C(=O)[C@H](C)[C@@H](O[C@@H]2O[C@H](C)C[C@H](N(C)C)[C@H]2O)[C@](C)(OC)C[C@@H](C)C(=O)[C@H](C)[C@H]2N(CCCCn3cc(-c4cccc(N)c4)nn3)C(=O)O[C@]12C [solithromycin],Most commonly reported AEs,[1]; all cohorts,mild diarrhea and mild headache
same,Mean changes from baseline in liver function tests on Day 8,"[1]; any cohort, after 5 days of administration",not clinically significant
same,ALT mean (±SD) change from baseline on Day 8,[1]; control cohort,2.6±4.47 IU/L
same,AST mean (±SD) change from baseline on Day 8,[1]; control cohort,−0.6±2.92 IU/L
same,Direct bilirubin mean (±SD) change from baseline on Day 8,[1]; control cohort,0.00 ± 0.053 mg/dL
same,Number of subjects reporting treatment-emergent AEs,[1]; healthy control group (9 enrolled),4
same,Safety compared to healthy controls,"[1]; humans with hepatic impairment, same doses",no significant differences in safety
same,Tolerability,"[1]; humans with mild, moderate and severe hepatic impairment, doses as high as 800 mg",well tolerated
same,ALT mean (±SD) change from baseline on Day 8,[1]; mild hepatic impairment,4.0±8.00 IU/L
same,AST mean (±SD) change from baseline on Day 8,[1]; mild hepatic impairment,0.4±5.93 IU/L
same,Direct bilirubin mean (±SD) change from baseline on Day 8,[1]; mild hepatic impairment,0.00 ± 0.076 mg/dL
same,Number of subjects reporting treatment-emergent AEs,[1]; mild hepatic impairment (8 enrolled),1
same,ALT mean (±SD) change from baseline on Day 8,[1]; moderate hepatic impairment,7.8±6.92 IU/L
same,AST mean (±SD) change from baseline on Day 8,[1]; moderate hepatic impairment,0.1±10.56 IU/L
same,Direct bilirubin mean (±SD) change from baseline on Day 8,[1]; moderate hepatic impairment,0.03 ± 0.046 mg/dL
same,Number of subjects reporting treatment-emergent AEs,[1]; moderate hepatic impairment (8 enrolled),4
same,ALT mean (±SD) change from baseline on Day 8,[1]; severe hepatic impairment,6.3±14.61 IU/L
same,AST mean (±SD) change from baseline on Day 8,[1]; severe hepatic impairment,5.8±22.44 IU/L
same,Direct bilirubin mean (±SD) change from baseline on Day 8,[1]; severe hepatic impairment,0.04 ± 0.207 mg/dL
same,Number of subjects reporting treatment-emergent AEs,[1]; severe hepatic impairment (8 enrolled),4
same,Sirius red-positive area (% of area showing fibrosis),STAM mice; 5 mg/kg,no statistically significant differences
same,Sirius red-positive area (% of area showing fibrosis),"STAM mice; 5 mg/kg, listed as SOLI",0.85 ± 0.28%
same,Sirius red-positive area (% of area showing fibrosis),STAM mice; 10 mg/kg,tended to decrease
same,Sirius red-positive area (% of area showing fibrosis),"STAM mice; 10 mg/kg, listed as SOLI",0.72 ± 0.27%
same,Sirius red-positive area (% of area showing fibrosis),STAM mice; 25 mg/kg,significantly decreased; also recorded: Statistically significant reduced fibrosis
same,Sirius red-positive area (% of area showing fibrosis),"STAM mice; 25 mg/kg, listed as SOLI",0.65 ± 0.27 %
same,Fibrosis area (Sirius red-positive area) compared to vehicle group,"STAM mice; STAM mice, Group 6 (50 mg/kg q.d.)",significantly decreased
